From US8410068B2, “Compounds for the treatment or alleviation of edema, and methods for their use” (Index Pharmaceuticals AB, priority 2007, dated 2013)

Tested on: OVA induced airway inflammation
Assay: Ovalbumin (OVA) induced allergic airway inflammation, BAL fluid cell counts
Type: in vivo, Balb/c mice
Experimental: Mice were sensitized intraperitoneally with 200 μL OVA/aluminium hydroxide gel (1:3) on day 0 and 12 (see FIG. 6). OVA (chicken egg albumin grade V, Sigma, St. Louis, Mo.) was dissolved in saline and mixed with aluminium hydroxide gel to a concentration of 50 μg/mL by rotation at 4° C. for 3 h. On days 23, 26, 30 and 33 (see FIG. 6), mice were challenged in the lungs by inhalation of aerosolized OVA for 30 minutes using a Batelle exposure chamber. Aerosols were generated by a compressed-air nebulizer (Collison 6-jet) at airflow 7.4 L/min using a nebulizer concentration of 10 mg/mL OVA dissolved in PBS (Sigma, St Louis, Mo., USA). The control group with non-sensitized animals received no other treatment than aerosolized OVA at days 23, 26, 30 and 33.
In this OVA model (FIG. 6), a total of 4 oligonucleotides were tested, IDX9025, IDX9038, IDX9053 (Table 1, SEQ ID NO 2-4) and IDX0150 (Table 3, SEQ ID NO 11). The oligonucleotides were synthesized by biomers.net GmbH, Ulm, Germany and stored frozen at −20° C. The oligonucleotides were diluted with PBS to the working concentration (1,247 μg/μL) and kept at −20° C. until the first day of instillation, thereafter they were placed at 4° C.
In a first experiment, both prophylactic and therapeutic protocols were tested (see FIG. 6). The drug treatment consisted of intranasal instillations of IDX0150 (1,247 μg/μL, provided by InDex Pharmaceuticals AB, Stockholm, Sweden) on days 16 and 21 (prophylactic protocol), on days 30 and 33 (therapeutic protocol A) or on days 30 and 34 (therapeutic protocol B). The instillations in the therapeutic protocols (A & B) on days 30 and 33 were given 4 h after aerosol challenge. The second instillation in protocol B on day 34 was given 24 h after the last aerosol challenge. The drug was administered in 40 μL PBS giving a dose of ˜50 μg/mice (49.88 μg/mice). The two sensitized sham-treatment groups were instilled with PBS, the same total volume as for the treatment groups, according to either the prophylactic protocol (days 16 and 21) or to the therapeutic protocol A (days 30 and 33).
In a second experiment, since administration of IDX0150 in the first experiment using prophylactic protocol (FIG. 6) gave a significant reduction of airway inflammation (FIG. 7), three other substances were tested with the same protocol. The drug treatment consisted of intranasal instillations of IDX9025, IDX9038 and IDX9053 (Table 1) (1,247 μg/μL, provided by InDex Pharmaceuticals AB) on days 16 and 21 (see FIG. 6, prophylactic protocol). All substances were administered in 40 μL PBS giving a dose of ˜50 μg/mice (49.88 μg/mice). The two sensitized sham-treatment groups were instilled with PBS, the same total volume as for the treatment groups, according to the prophylactic protocol (days 16 and 21).
Mice were killed by cervical dislocation 42 h after the last OVA aerosol challenge. The trachea was cannulated with polyethylene tubing (Becton Dickinson, Sparks, Md., USA) and bronchoalveolar lavage (BAL) was performed using 4×1 mL aliquots of ice-cold Hank's balanced salt solution (HBSS) (Sigma, St Louis, Mo., USA). The BAL fluid was centrifuged (400 g, 10 min, 4° C.) and the BAL fluid cells were resuspended in 0.4 mL PBS. The total number of leukocytes counted using tryphan blue exclusion in a Barker chamber. Duplicate Cytospin (Cytospin 3, Shandon, Runcorn, UK) preparations of BAL fluid cells were stained with May Grünewald Giemsa for differential counts, using standard morphological criteria.
Statistical comparisons were performed using One-way analysis of variance (ANOVA) using Dunnett's post hoc correction to compare with sensitized PBS treated control mice (GraphPad Prism 3). Data are shown as mean±standard deviation. P<0.05 was considered significant.

Question: “G*G*A*ACAGTTCGTCCAT*G*G*C (phosphorothioate linkages, as printed in the source, key not given here) [IDX0150, oligonucleotide used as control; * = phosphorothioate modification]” was tested. Which “migration of eosinophils into the BAL fluid” value (prophylactic protocol, 50 μg/animal intranasal on day 16 and 21, P<0.001) did it give?
Answer: significantly reduce

Question: And the “migration of leukocytes into the BAL fluid” value (prophylactic protocol, 50 μg/animal intranasal on day 16 and 21, P<0.05)?
Answer: significantly reduce

Question: And the “effect on BAL fluid cells, therapeutic arm” value (therapeutic protocols, 50 μg intranasal, days 30 and 33 (A) or 30 and 34 (B))?
Answer: no statistically proven effects
